Measured values from the supplement of paper PMC11451515.

Tested on: NOMO1
Assay: cell viability relative to DMSO control; higher = less cytotoxic
Details: 48 h
In short: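 Viability, reported as a per-plate percentage of DMSO wells with cell-free wells as background, came from CellTiter-Glo One luminescence. Reading took place after 48 h at 37°C. Before that, NOMO1 or SEM (500 cells/well) or P12-Ichikawa (1000 cells/well) leukemia cells, adapted for at least four passages in each medium, were seeded in 1536-well plates (5 μl) and pin-dosed with library compounds in DMSO, 47 μM to 0.79 nM over 11 threefold points.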

[1] = HPLM + 10% dialyzed FBS, 0.000781 µM
[2] = HPLM + 10% dialyzed FBS, 0.00234 µM
[3] = HPLM + 10% dialyzed FBS, 0.00702 µM
[4] = HPLM + 10% dialyzed FBS, 0.0211 µM
[5] = HPLM + 10% dialyzed FBS, 0.0632 µM
[6] = HPLM + 10% dialyzed FBS, 0.19 µM
[7] = HPLM + 10% dialyzed FBS, 0.569 µM
[8] = HPLM + 10% dialyzed FBS, 1.71 µM
[9] = HPLM + 10% dialyzed FBS, 5.12 µM
[10] = HPLM + 10% dialyzed FBS, 15.4 µM
[11] = HPLM + 10% dialyzed FBS, 46.1 µM
[12] = RPMI 5 mM glucose + 10% FBS, 0.000781 µM
[13] = RPMI 5 mM glucose + 10% FBS, 0.00234 µM
[14] = RPMI 5 mM glucose + 10% FBS, 0.00702 µM
[15] = RPMI 5 mM glucose + 10% FBS, 0.0211 µM
[16] = RPMI 5 mM glucose + 10% FBS, 0.0632 µM
[17] = RPMI 5 mM glucose + 10% FBS, 0.19 µM
[18] = RPMI 5 mM glucose + 10% FBS, 0.569 µM
[19] = RPMI 5 mM glucose + 10% FBS, 1.71 µM
[20] = RPMI 5 mM glucose + 10% FBS, 5.12 µM
[21] = RPMI 5 mM glucose + 10% FBS, 15.4 µM
[22] = RPMI 5 mM glucose + 10% FBS, 46.1 µM
[23] = RPMI 5 mM glucose + 10% dialyzed FBS, 0.000781 µM
[24] = RPMI 5 mM glucose + 10% dialyzed FBS, 0.00234 µM
[25] = RPMI 5 mM glucose + 10% dialyzed FBS, 0.00702 µM
[26] = RPMI 5 mM glucose + 10% dialyzed FBS, 0.0211 µM
[27] = RPMI 5 mM glucose + 10% dialyzed FBS, 0.0632 µM
[28] = RPMI 5 mM glucose + 10% dialyzed FBS, 0.19 µM
[29] = RPMI 5 mM glucose + 10% dialyzed FBS, 0.569 µM
[30] = RPMI 5 mM glucose + 10% dialyzed FBS, 1.71 µM
[31] = RPMI 5 mM glucose + 10% dialyzed FBS, 5.12 µM
[32] = RPMI 5 mM glucose + 10% dialyzed FBS, 15.4 µM
[33] = RPMI 5 mM glucose + 10% dialyzed FBS, 46.1 µM

Structure (SMILES)	cell viability [1]	cell viability [2]	cell viability [3]	cell viability [4]	cell viability [5]	cell viability [6]	cell viability [7]	cell viability [8]	cell viability [9]	cell viability [10]	cell viability [11]	cell viability [12]	cell viability [13]	cell viability [14]	cell viability [15]	cell viability [16]	cell viability [17]	cell viability [18]	cell viability [19]	cell viability [20]	cell viability [21]	cell viability [22]	cell viability [23]	cell viability [24]	cell viability [25]	cell viability [26]	cell viability [27]	cell viability [28]	cell viability [29]	cell viability [30]	cell viability [31]	cell viability [32]	cell viability [33]
O=C(O)CCCCC(CCSCc1ccccc1)SCc1ccccc1 (stereo not drawn)	109%	104%	105%	117%	124%	115%	118%	135%	110%	86%	28.7%	108%	112%	115%	113%	121%	114%	107%	102%	109%	100%	39.1%	122%	116%	124%	123%	120%	134%	131%	129%	112%	99.9%	55.5%
CCc1cc(C(N)=S)ccn1	110%	117%	112%	130%	118%	131%	133%	119%	142%	134%	118%	118%	125%	127%	119%	126%	132%	119%	131%	130%	141%	139%	126%	116%	102%	126%	137%	121%	137%	123%	123%	145%	133%
CCn1c(-c2nonc2N)nc2c(C#CC(C)(C)O)ncc(OC[C@H]3CCCNC3)c21	91.3%	88.8%	80%	96%	73.4%	75.8%	71.9%	61.7%	70.3%	71.7%	48%	80.8%	82.5%	84.1%	84.1%	79.8%	87.3%	81%	83.5%	82%	84.1%	49.3%	77.2%	96.1%	86.8%	93.7%	80.6%	84.3%	74.4%	82%	74.2%	79.2%	68.2%
NC[C@@H]1O[C@H](O[C@H]2[C@@H](O)[C@H](O[C@@H]3[C@@H](O)[C@H](N)C[C@H](N)[C@H]3O[C@H]3O[C@H](CN)[C@@H](O)[C@H](O)[C@H]3N)O[C@@H]2CO)[C@H](N)[C@@H](O)[C@@H]1O.O=S(=O)(O)O.O=S(=O)(O)O.O=S(=O)(O)O	103%	82.8%	110%	113%	101%	110%	110%	106%	107%	88.5%	92.9%	95.3%	105%	99.2%	107%	111%	107%	96.8%	108%	87.2%	98.5%	94.9%	92.2%	90.5%	86.8%	96.1%	96.5%	85.7%	92.8%	90.1%	89.9%	79.4%	83%
O=C(CCCCCCC(=O)Nc1cccnc1)NO	92.3%	108%	105%	101%	114%	91.1%	108%	109%	91.3%	70.5%	8.89%	83.6%	91.2%	98%	84.1%	84.9%	91.8%	100%	83.6%	84.3%	72.8%	12.3%	101%	92.3%	93.9%	93.1%	101%	102%	110%	85.1%	95.4%	74.1%	12.7%
CC[C@]12CC[C@H]3[C@@H](CCC/4=C/C(=O)CC[C@H]34)[C@@H]1CC[C@@]2(O)C#C	100%	92.6%	101%	85.8%	97.1%	94.4%	86.6%	72.4%	89.2%	80.4%	69.8%	92.7%	78.8%	95%	88.5%	81.8%	75.1%	72.2%	76.3%	82.5%	73.5%	70.8%	82.1%	77.5%	77.7%	86.6%	75.4%	77.6%	79.7%	78.5%	74.1%	74.9%	84.5%
C[C@@H]1CCN(C(=O)CC#N)C[C@@H]1N(C)c1ncnc2[nH]ccc12	93.6%	81.7%	91.7%	84.4%	97.6%	77.1%	94.7%	76.3%	83.6%	81.9%	73.6%	97.2%	84.6%	83.3%	75.8%	77.8%	72%	73.4%	71.8%	81.6%	80.9%	75.7%	89%	89.1%	84.9%	88.4%	87.5%	80.7%	69.3%	101%	91.9%	88.4%	84.7%
CCC(C)N1\N=C/N(C1=O)C2=CC=C(C=C2)N3CCN(CC3)C4=CC=C(OC[C@H]5CO[C@@](C[N]6C=NC=N6)(O5)C7=CC=C(Cl)C=C7Cl)C=C4 (stereo partly drawn)	110%	98.9%	117%	121%	122%	97.2%	108%	102%	107%	90.4%	86%	101%	108%	113%	99.6%	111%	121%	93.9%	101%	102%	95.3%	85.8%	102%	104%	119%	124%	111%	113%	120%	103%	98.9%	99.6%	86.2%
CCOC(=O)[C@@]1(CCCCCCOc2ccc(Cl)cc2)CO1												120%	118%	109%	107%	108%	115%	106%	106%	96.5%	86.7%	48.1%	117%	117%	114%	112%	111%	111%	113%	108%	107%	96%	56.8%
COc1ccc(C(CN(C)C)C2(O)CCCCC2)cc1 (stereo not drawn)	101%	125%	124%	125%	115%	127%	120%	104%	124%	94.5%	95.3%	44.9%	118%	122%	118%	113%	120%	104%	104%	107%	97.2%	109%	46.1%	111%	111%	117%	105%	104%	96.4%	109%	97.9%	111%	100%
C[C@H]1C[C@H]2[C@@H]3CC[C@](O)(C(=O)CO)[C@@]3(C)C[C@H](O)[C@@H]2[C@@]\4(C)/C=C\C(=O)\C=C14	82.1%	110%	115%	104%	113%	115%	92.3%	89.9%	89.6%	94.1%	95.6%	81.4%	95.3%	90.6%	101%	104%	97.1%	93.1%	89.5%	89.5%	88.4%	92.8%	72.9%	88.5%	91.4%	102%	102%	93.1%	100%	90.4%	101%	105%	84.6%
CN1CCN(c2c(F)cc3c(=O)c(C(=O)O)cn(CCF)c3c2F)CC1	97.8%	107%	114%	119%	101%	116%	106%	124%	105%	125%	96.9%	101%	103%	108%	109%	122%	106%	104%	116%	120%	114%	119%	93.3%	93.2%	97.6%	109%	106%	108%	115%	111%	118%	102%	104%
CCCC(C)(COC(N)=O)COC(=O)NC(C)C (stereo not drawn)	107%	123%	125%	138%	143%	131%	127%	130%	123%	141%	140%	116%	122%	132%	127%	145%	130%	127%	125%	137%	150%	129%											
CC\12CCC(=O)\C=C1CCC3C2CCC4(C)C3CCC4(O)C#C (stereo not drawn)	98.9%	101%	106%	91.1%	112%	100%	98.3%	98.8%	77.5%	86.4%	88%	89.9%	93.2%	97.4%	103%	86.6%	94.9%	88.8%	84%	87.2%	88.1%	74.7%	99.8%	101%	95.8%	95.5%	99.6%	96.1%	74.9%	79.2%	73.9%	83.5%	85.7%
NC(=O)Nc1sc(-c2ccc(F)cc2)cc1C(N)=O	108%	112%	117%	111%	121%	102%	94.5%	99.8%	83.8%	60.2%	55.2%	117%	99.7%	115%	96%	113%	110%	96.7%	92.4%	95.9%	78%	50.5%	101%	111%	111%	100%	103%	107%	104%	79.4%	75.6%	62%	54.1%
